Measured values from patent publication US20250009731A1, “TOLL-LIKE RECEPTOR THERAPY COMBINATIONS WITH CBL-B INHIBITOR COMPOUNDS” (NURIX THERAPEUTICS, INC., priority 2021, published 2025).

Key:
[1] = tested on: CT26 tumors; assay: CT26 colon carcinoma tumor model, tumor volume; assay type: in vivo, mice; settings: oral 10 mg/kg or 30 mg/kg, Day 7 to Day 32; tumor volume at Day 25
Experimental: Mice bearing tumors on their left and right flanks were treated from Day 7 to Day 32 with oral Compound 23 at 10 mg/kg or 30 mg/kg or vehicle. Volumes at Day 25 are indicated. Statistics were calculated with one-way ANOVA and Dunn's multiple comparisons test ** P<0.01.

[2] = tested on: CT26 tumors; assay: CT26 tumor model with depleting antibodies for CD4+, CD8+ or NK cells; assay type: in vivo, mice; settings: 30 mg/kg PO QD Day 9 to Day 25; tumor volume at Day 25
From the text: Tumor volume at Day 25 is indicated. CD8+ T-cell or NK cell depletion abrogates Compound 23 activity. Stats calculated with Mann-Whitney (Vehicle vs. Compound 23) or one-way ANOVA with Dunn's multiple comparisons test (Compound 23 vs. Depletion groups); * P≤0.05, ** P≤0.01, **** P≤0.0001 The efficacy of Compound 23 on tumors is linked to CD8+ T function and on NK cell function.

[3] = tested on: 4T1 tumors; assay: 4T1 triple negative mammary carcinoma metastatic model with primary tumor resection, survival; assay type: in vivo, mice; settings: oral 30 mg/kg daily
From the text: Another in vivo study evaluated the ability of Compound 23 treatment, started before the primary tumor resection, to eradicate 4T1 breast carcinoma metastatic disease. The 4T1 triple negative mammary carcinoma is a transplantable tumor cell line that is highly tumorigenic and invasive and, unlike most tumor models, spontaneously metastasizes from a primary tumor growing in the mammary gland to multiple distant sites including lymph nodes, blood, liver, lung, brain, and bone. Tumor cells are easily transplanted into the mammary glands so that the primary tumor grows in the anatomically relevant site. The progressive spread of 4T1 metastases to other organs is very similar to that of human mammary cancer. Animals die from disseminated metastatic disease regardless of resection of the primary tumor (Pulaski et al., 2000, Current Protocols in Immunology 39(1):20.2.1-20.2.16). […] Beginning on Day 7, tumor volumes were measured twice weekly until they reached a mean tumor volume of 145 mm^3 when the primary tumors were resected on Day 14 or 15 (dotted line). Median survival times were calculated for each group and body weights were monitored until the end of the study on Day 140. Body weights were measured twice weekly then once weekly starting Day 47. […] Statistical significance of differences in conditional survival between groups was evaluated using the Log-rank (Mantel-Cox) test. […] Median survival is reported as undefined for the Compound 23 group, as survival exceeds 50% at Day 140.

[4] = tested on: CT26 tumors; assay: nCounter Mouse PanCancer Immune Profiling Panel gene expression in CT26 tumors; assay type: in vivo, mice; settings: vs vehicle
From the text: In this example, the gene expression changes induced in tumors from mice treated with Compound 23 studies were as investigated. To perform this assessment, the nCounter PanCancer Immune Profiling Panel was used, which is a multiplexed gene expression panel developed by NanoString Technologies that measures expression of 770 immune and cancer related genes (Eastel et al., 2019, Expert Review of Molecular Diagnostics, 19(7):591-598). This technology is a unique gene expression tool that covers many important features of the immune response in the tumor microenvironment and was used to facilitate the understanding of immune related changes in tumors treated with Compound 23.
In FIG. 4A, CT26 tumors were harvested after 4 doses and after 19 doses of Compound 23 or vehicle and gene expression was directly measured using the nCounter Mouse PanCancer Immune Profiling Panel. Analysis was performed using the nSolver 4.0 and the nCounter Advanced Analysis software comparing gene expression in Compound 23 to vehicle treated tumors. […] Statistical significance of differences in mean cell type scores between Compound 23 and vehicle treated groups was evaluated using Mann-Whitney test (* P≤0.05, ** P≤0.01, and *** P≤0.001).
(§1) In FIG. 4B, CT26 tumors were harvested after 4 treatment doses and gene expression was directly measured using the nCounter Mouse PanCancer Immune Profiling Panel. Analysis was performed using the nSolver 4.0 and the nCounter Advanced Analysis software comparing gene expression in Compound 23 to vehicle treated tumors. As indicated in the titles above each panel, scatter plots of individual Pathway Signature Scores of vehicle and Compound 23 treated tumors are shown. Statistical significance of differences in Pathway Signature Scores between Compound 23 and vehicle treated groups was evaluated using Mann-Whitney test (* P≤0.05, ** P≤0.01, and *** P≤0.001).
as §1, with “FIG. 4C,” for “FIG. 4B,”, “after 19” for “after 4”

[5] = tested on: CT26 tumors; assay: Flow cytometry of tumor-infiltrating immune cells in CT26 tumors; assay type: in vivo, mice; settings: 30 mg/kg daily PO, 19 doses
Experimental: CT26 tumors were harvested after 19 doses of Compound 23 or vehicle and tumor-infiltrating immune cell density and phenotype was assessed by Flow Cytometry.

[6] = tested on: 4T1 tumors; assay: Flow cytometry of tumor and blood from orthotopic 4T1 tumor-bearing mice; assay type: in vivo
From the text: Tumor and blood samples were harvested on Day 28 and analyzed by Flow Cytometry.

[7] = tested on: total primary human T-cells; assay: IL-2 and IFN-γ release by stimulated total primary human T-cells (ELISA); assay type: cell-based; settings: plate bound anti-CD3, with and without CD28 co-stimulation, lesser degree without co-stimulation
Experimental: Cells were stimulated with plate bound anti-CD3 (right) or anti-CD3/anti-CD28 (left) in presence or absence of the indicated concentration of Compound 23. Release of IL-2 or IFN-γ were assessed by ELISA. Compound 23 inhibition of Cbl-b enhanced IL-2 and IFN-γ secretion in primary human T cells stimulated with anti-CD3 antibodies, in both the presence and absence of CD28 co-stimulation, although to a lesser degree in the absence of co-stimulation.

C[C@H]1CCCN(Cc2cc3c(c(C(F)(F)F)c2)CN(c2cccc([C@]4(c5nncn5C)C[C@@H](C)C4)c2)C3=O)C1 [Compound 23]
anti-tumor activity, CT26 colon carcinoma model [1]: significant anti-tumor activity | effect of CD8+ T-cell depletion on antitumor activity [2]: abrogates | effect of NK cell depletion (anti-asialo-GM1) on antitumor activity [2]: abrogates | survival at Day 140 [3]: exceeds 50% | anti-tumor activity, metastatic triple negative breast tumor model 4T1 ([3]; Day 8 to Day 46): significant anti-tumor activity | median survival time compared to vehicle control ([3]; Day 8 to Day 46, primary tumor resected Day 14 or 15, Log-rank test): significantly increased | mice that remained tumor free until the end of the study ([3]; Day 140): 54% | median survival ([3]; study end Day 140): undefined | cytotoxic cells score ([4]; after 4 doses, oral 30 mg/kg daily, P=0.1061): clear trend of increased infiltration | tumor infiltrating lymphocytes (TIL) score ([4]; after 4 doses, oral 30 mg/kg daily, P=0.6679): clear trend of increased infiltration | T-cell score ([4]; after 4 doses, oral 30 mg/kg daily, P=0.7551): clear trend of increased infiltration | pathway scores of innate immune signaling: dendritic cell function, macrophage function, chemokine receptors and pathways ([4]; after 4 doses): significant gene expression changes | pathway scores of T-cell, B cell, NK cell and adaptive immune function ([4]; after 4 doses, trend for increases): not significant | cytotoxic cell score ([4]; after 19 doses, oral, P=0.0002): significant increases | tumor infiltrating lymphocytes (TIL) score ([4]; after 19 doses, oral, P=0.0044): significant increases | T-cell score ([4]; after 19 doses, oral, P=0.0098): significant increases | immune related pathway scores: dendritic cell, macrophage, T-cell, NK cell, B cell, interferon function, adaptive immunity, chemokine and receptor, cytokine and receptor ([4]; after 19 doses): significantly enhanced function | number of tumor-infiltrating leukocytes (TIL) per gram of tumor ([5]; FIG. 7A): increased | frequency of total CD3+ T cells as a percentage of CD45+ leukocytes ([5]; FIG. 7B): increased | frequency of total CD8+ T cells as a percentage of CD45+ leukocytes ([5]; FIG. 7C): increased | number of total CD8+ T-cells per gram of tumor ([5]; FIG. 7D): increased | frequency of CD8+ T-cells that express the activation marker CD29 (CD29+) ([5]; FIG. 7E): increased | CD8+ T-cells to Tregs ratio ([5]; FIG. 7F): increased | CD8+ effector T-cells (PD1+) to Tregs ratio ([5]; FIG. 7G): increased | frequency of activated NK cells (CD11b+) that express Granzyme+ ([5]; FIG. 7H): increased | frequency of activated NK cells (CD27+CD11 b+) that express Granzyme+ ([5]; FIG. 7I): increased | frequency of tumor gp70 antigen-specific CD8+ T-cells (AH1 Dextramer+ CD8+ T-cells) in 4T1 tumors ([6]; 30 mg/kg daily PO Day 9 to Day 28, FIG. 6A): increased | frequency of gp70 antigen-specific CD8+ T-cells with exhaustion phenotype (PD-1+ LAG3+) in 4T1 tumors ([6]; 30 mg/kg daily PO Day 9 to Day 28, FIG. 6B): decreased | frequency of circulating CD8+ T-cells with activated phenotype (PD-1+) in blood ([6]; 30 mg/kg daily PO Day 9 to Day 28, FIG. 6C): increased | frequency of circulating CD8+ T-cells with memory phenotype (CD44+CD27+CD127+) in blood ([6]; 30 mg/kg daily PO Day 9 to Day 28, FIG. 6D): increased | IFN-γ secretion [7]: enhanced | IL-2 secretion [7]: enhanced
